Calls of active or inactive are those of the source. The rule behind the calls is not given here.
How the values were obtained:
[1] = target: T1, Dual specificity mitogen-activated protein kinase kinase 7 (Homo sapiens) (UniProt O14733); experiment: Binding affinity to MKK7 (unknown origin) expressed in HEK293 cells assessed as dissociation constant at <30 uM by kinomescan method; assay type: cell-based
T1 sequence (whole entry): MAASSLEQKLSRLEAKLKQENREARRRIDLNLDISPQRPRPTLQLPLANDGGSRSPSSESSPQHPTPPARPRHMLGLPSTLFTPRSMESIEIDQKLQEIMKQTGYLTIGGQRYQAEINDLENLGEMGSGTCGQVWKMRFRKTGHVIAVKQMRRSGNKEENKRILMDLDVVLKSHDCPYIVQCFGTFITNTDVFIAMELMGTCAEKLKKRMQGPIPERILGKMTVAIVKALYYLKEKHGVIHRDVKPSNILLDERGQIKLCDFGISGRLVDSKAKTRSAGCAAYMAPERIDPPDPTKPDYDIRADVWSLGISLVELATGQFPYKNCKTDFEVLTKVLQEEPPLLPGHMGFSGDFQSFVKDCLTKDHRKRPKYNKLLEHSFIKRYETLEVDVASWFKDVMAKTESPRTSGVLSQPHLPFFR

[2] = target: T2, M-phase inducer phosphatase 1 (Homo sapiens, UniProt P30304)
T2 sequence (P30304 whole entry): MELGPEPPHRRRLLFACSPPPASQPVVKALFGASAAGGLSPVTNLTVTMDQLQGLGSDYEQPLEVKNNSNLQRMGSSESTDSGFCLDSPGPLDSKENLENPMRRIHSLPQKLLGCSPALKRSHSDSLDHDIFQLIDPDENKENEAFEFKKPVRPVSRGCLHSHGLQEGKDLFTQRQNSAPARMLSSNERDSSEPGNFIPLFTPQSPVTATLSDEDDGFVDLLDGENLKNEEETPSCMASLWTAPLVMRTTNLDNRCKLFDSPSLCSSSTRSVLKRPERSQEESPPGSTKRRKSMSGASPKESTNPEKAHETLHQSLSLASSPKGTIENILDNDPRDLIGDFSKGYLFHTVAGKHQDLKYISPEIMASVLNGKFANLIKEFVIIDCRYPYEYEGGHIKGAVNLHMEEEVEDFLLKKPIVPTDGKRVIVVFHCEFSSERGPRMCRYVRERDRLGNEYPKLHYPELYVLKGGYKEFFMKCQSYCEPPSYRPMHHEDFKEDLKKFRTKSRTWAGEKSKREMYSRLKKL
Description: Inhibition of recombinant Cdc25A (unknown origin) using OMFP as substrate measured every 30 sec for 10 mins by fluorometric assay

[3] = target: T3, Neutrophil elastase (Homo sapiens) (UniProt P08246); experiment: Inhibition of recombinant HNE (unknown origin) at <50 uM using N-methylsuccinyl-Ala-Ala-Pro-Val-7-amino-4-methylcoumarin, as a substrate measured every 30 sec for 10 mins by fluorometric assay
T3 sequence (whole entry): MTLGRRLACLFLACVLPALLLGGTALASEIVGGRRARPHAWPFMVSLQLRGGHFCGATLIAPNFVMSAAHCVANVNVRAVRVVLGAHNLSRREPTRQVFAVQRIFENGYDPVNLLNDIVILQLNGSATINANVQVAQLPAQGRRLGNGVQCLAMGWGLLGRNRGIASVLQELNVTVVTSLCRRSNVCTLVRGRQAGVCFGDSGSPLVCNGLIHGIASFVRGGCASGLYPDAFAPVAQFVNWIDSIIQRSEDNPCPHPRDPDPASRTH

SW982 = experiment: Cytotoxicity against human SW982 cells assessed as reduction in cell viability incubated for 24 hrs by CellTiter-Glo luminescent cell viability assay; assay type: functional, cell-based; conditions: SW982, 24 h
[4] = target: T4, M-phase inducer phosphatase 2 (Homo sapiens, UniProt P30305)
T4 sequence (P30305 whole entry): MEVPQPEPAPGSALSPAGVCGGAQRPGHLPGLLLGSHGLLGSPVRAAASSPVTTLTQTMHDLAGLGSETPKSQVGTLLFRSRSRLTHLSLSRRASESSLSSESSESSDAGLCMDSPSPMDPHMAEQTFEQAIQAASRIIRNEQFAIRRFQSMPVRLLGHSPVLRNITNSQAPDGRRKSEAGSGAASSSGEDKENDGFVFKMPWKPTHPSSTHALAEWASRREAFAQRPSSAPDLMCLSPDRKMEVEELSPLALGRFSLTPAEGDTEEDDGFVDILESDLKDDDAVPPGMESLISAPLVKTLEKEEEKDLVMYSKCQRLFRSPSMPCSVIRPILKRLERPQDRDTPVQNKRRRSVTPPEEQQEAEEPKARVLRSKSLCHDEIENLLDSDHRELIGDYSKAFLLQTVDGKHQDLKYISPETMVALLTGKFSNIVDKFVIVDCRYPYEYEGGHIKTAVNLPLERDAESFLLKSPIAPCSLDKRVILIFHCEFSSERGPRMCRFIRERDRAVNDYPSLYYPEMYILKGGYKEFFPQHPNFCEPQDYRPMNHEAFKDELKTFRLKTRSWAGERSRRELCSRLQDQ
Description: Inhibition of recombinant Cdc25B (unknown origin) using OMFP as substrate measured every 30 sec for 10 mins by fluorometric assay

Jurkat = experiment: cells; conditions: Homo sapiens, 24 h
Description: Cytotoxicity against human Jurkat cells assessed as reduction in cell viability incubated for 24 hrs by CellTiter-Glo luminescent cell viability assay

U-937 = experiment: Cytotoxicity against human U937 cells assessed as reduction in cell viability incubated for 24 hrs by CellTiter-Glo luminescent cell viability assay; assay type: functional, cell-based; conditions: U-937, 24 h
MCF7 = experiment: Cytotoxicity against human MCF7 cells assessed as reduction in cell viability incubated for 24 hrs by CellTiter-Glo luminescent cell viability assay; assay type: functional, cell-based; conditions: MCF7, 24 h
PBMC = experiment: Cytotoxicity against human PBMC cells assessed as reduction in cell viability incubated for 24 hrs by CellTiter-Glo luminescent cell viability assay; assay type: cell-based
A549 = experiment: Cytotoxicity against human A549 cells assessed as reduction in cell viability incubated for 24 hrs by CellTiter-Glo luminescent cell viability assay; assay type: functional, cell-based; conditions: for IC50: A549, 24 h
MONO-MAC-6 = experiment: Cytotoxicity against human MONO-MAC-6 cells assessed as reduction in cell viability incubated for 24 hrs by CellTiter-Glo luminescent cell viability assay; assay type: functional, cell-based; conditions: MONO-MAC-6, 24 h
LS174T = experiment: Cytotoxicity against human LS174T cells assessed as reduction in cell viability incubated for 24 hrs by CellTiter-Glo luminescent cell viability assay; assay type: functional, cell-based
THP-1 = experiment: Cytotoxicity against human THP1 cells assessed as reduction in cell viability incubated for 24 hrs by CellTiter-Glo luminescent cell viability assay; assay type: functional, cell-based; conditions: THP-1, 24 h
HL-60 = experiment: Cytotoxicity against human HL60 cells assessed as reduction in cell viability incubated for 24 hrs by CellTiter-Glo luminescent cell viability assay; assay type: functional, cell-based; conditions: for IC50: HL-60, 24 h
[5] = target: T5, Dual specificity mitogen-activated protein kinase kinase 7 (Homo sapiens, UniProt O14733); experiment: biochemical
T5 sequence (O14733 whole entry): T1 sequence (whole entry)
Description: Binding affinity to MKK7 (unknown origin) expressed in HEK293 cells assessed as dissociation constant by kinomescan method

Row | SMILES | Activity [1] | IC50 [2] [µM] | inhibition [3] | IC50 (SW982) [µM] | IC50 [4] [µM] | IC50 (Jurkat) [µM] | IC50 (U-937) [µM] | IC50 (A549) [µM] | further results
1 | O=C(O)CSc1nc(O)c2ccccc2n1 | inactive |  |  |  |  |  |  |  | 
2 | COC1=CC(=O)c2ccccc2C1=O [2-Methoxy-1,4-naphthoquinone] | inactive | 2.3 | inactive | 29.8 | 46.8 | 16.1 | 13.9 | 16.4 | IC50 (MCF7): 6.1 µM; IC50 (PBMC; read-out: IC50): 29.8 µM; IC50 (MONO-MAC-6): 4.8 µM; IC50 (LS174T): 33.7 µM; IC50 (THP-1): 16.6 µM; IC50 (HL-60): 7.1 µM
3 | COC(=O)c1ccc(NC2=C(Cl)C(=O)c3ccccc3C2=O)cc1 |  | 20.3 | inactive |  | 10.9 |  |  |  | inhibition [1]: inactive
4 | O=C1C(O)=C(CN(CCCl)CCCl)C(=O)c2ccccc21 |  | 15.4 |  |  |  |  |  |  | 
5 | COC(=O)c1ccc(NC2=C(N3CCCCC3)C(=O)c3ccccc3C2=O)cc1 |  | 11.6 | inactive |  | 14.2 |  |  |  | inhibition [1]: inactive
6 | Nn1c(CCC(=O)O)nc2ccccc2c1=O | inactive |  |  |  |  |  |  |  | 
7 | Cn1c(SCCC(=O)O)nc2ccccc2c1=O | inactive |  |  |  |  |  |  |  | 
8 | CC1=CC(=O)c2c(O)cccc2C1=O |  |  | inactive |  |  |  |  |  | 
9 | O=C(O)CCCc1nc2ccccc2c(=O)[nH]1 | inactive |  |  |  |  |  |  |  | 
10 | O=C(O)CCNC1=C(Cl)C(=O)c2ccccc2C1=O |  | 26.1 | inactive |  | 28.8 |  |  |  | inhibition [1]: inactive
11 | O=C(O)c1ccc(NC2=C(Cl)C(=O)c3ccccc3C2=O)cc1 |  | 2.4 | inactive | 4.6 | 4.9 | 5.5 | 3.9 | 17.6 | inhibition [1]: inactive; IC50 (MCF7): 14.5 µM; IC50 (PBMC; read-out: IC50): 13.1 µM; IC50 (MONO-MAC-6): 6 µM; IC50 (LS174T): 9.9 µM; IC50 (THP-1): 5.6 µM; IC50 (HL-60): 8.9 µM
12 | CC1=C(SCCC(=O)O)C(=O)c2ccccc2C1=O |  | 5.1 | inactive |  |  |  |  |  | Kd [5]: 15 µM
13 | CC(C)=CC[C@@H](O)C1=CC(=O)c2c(O)ccc(O)c2C1=O [SHIKONIN] | inactive | 0.22 | inactive | 2.8 |  | 0.97 | 1.2 | 7.3 | IC50 (MCF7): 2.7 µM; IC50 (PBMC; read-out: IC50): 5 µM; IC50 (MONO-MAC-6): 2.6 µM; IC50 (LS174T): 8.9 µM; IC50 (THP-1): 0.82 µM; Activity (HL-60): Dose-dependent effect
14 | O=C(O)CSC1=CC(=O)c2ccccc2C1=O |  | 0.05 | inactive | 11.1 | 1 | 0.94 | 15.9 | 22.9 | Kd [5]: 1.4 µM; Activity (A549): inactive; IC50 (MONO-MAC-6): 23.2 µM; IC50 (HL-60): 20.4 µM
15 | O=C(O)CCNC(=O)Cn1cnc2ccccc2c1=O | inactive |  |  |  |  |  |  |  | 
16 | CSC1=C(SC)C(=O)c2ccccc2C1=O |  |  | inactive | 7.6 |  | 1.4 |  | 12.4 | IC50 (MCF7): 7.4 µM; IC50 (LS174T): 15.1 µM; IC50 (THP-1): 1.7 µM; IC50 (HL-60): 0.7 µM
17 | CCN(CC)CCNC(=O)c1c(C)[nH]c(/C=C2\C(=O)Nc3ccc(F)cc32)c1C [SUNITINIB] |  |  |  | 41.2 |  |  | 13.7 |  | IC50 (PBMC): 46.3 µM
18 | O=C(O)CCCNC1=C(Cl)C(=O)c2ccccc2C1=O |  | 8.2 | inactive |  | 10.9 |  |  |  | inhibition [1]: inactive
19 | CC1=C(SCCO)C(=O)c2ccccc2C1=O | inactive | 4.5 | inactive | 19.3 | 10.9 | 6.8 | 12.1 | 41.3 | IC50 (MCF7): 30.9 µM; IC50 (PBMC; read-out: IC50): 13.3 µM; IC50 (MONO-MAC-6): 6.3 µM; IC50 (LS174T): 39.4 µM; IC50 (THP-1): 3.9 µM; IC50 (HL-60): 9.3 µM
20 | O=C(O)CCCCCNC1=C(Cl)C(=O)c2ccccc2C1=O |  | 36.4 | inactive |  | 23.7 |  |  |  | inhibition [1]: inactive
21 | O=C(O)CCSc1nc(O)c2ccccc2n1 | inactive |  |  |  |  |  |  |  | 
22 | CC1=CC(=O)c2ccccc2C1=O [MENADIONE] | inactive | 6.9 | inactive | 9.3 | 3.9 | 5 | 6.3 | 25.1 | IC50 (MCF7): 9 µM; IC50 (PBMC; read-out: IC50): 14.5 µM; IC50 (LS174T): 26.6 µM; IC50 (HL-60): 5.6 µM
